“Also recorded” adds a separate entry of the source. Where two headings read alike, the source gives them in different places.
Tests used:
[1] = tested on: mammalian neuraminidase; settings: cultures of human macrophagic cells; cited from earlier work
[2] = tested on: Swiss-Webster (SW) mice; experiment: Hot-water-immersion tail-flick antinociception assays with neuraminidase inhibitors (temperature not given); format: in vivo
[3] = tested on: Swiss-Webster (SW) mice; format: in vivo
[4] = tested on: Swiss-Webster (SW) mice; format: in vivo; remark: listed apart in the source
[5] = tested on: Swiss-Webster (SW) mice; format: in vivo; settings: for effect on low-dose κ-opioid-induced hyperalgesia, compared with CTX-B cotreatment: 10 ng/kg U-50,488H plus ultralow (pg/kg) dose of antagonist
[6] = tested on: male dental-pain patients; settings: cited from earlier work
[7] = tested on: Swiss-Webster (SW) mice; settings: low doses in naïve mice; cited from earlier work
[8] = tested on: mice; settings: cited from earlier work

O=S(=O)([O-])[O-].[Mg+2] [MgSO4]
effect on mammalian neuraminidase activity [1]: potent inhibitory effects on mammalian neuraminidase activity

O=S(=O)([O-])[O-].[Na+].[Na+] [Na2SO4]
results of antinociception assays compared with oseltamivir ([2]; 3 μg/kg morphine plus 10 mg/kg Na2SO4): surprisingly similar
development of tolerance ([2]; 10 mg/kg Na2SO4 plus 3 mg/kg morphine, daily injections for 5 days): prevented development of tolerance during daily injections for 5 days
effect on morphine analgesia ([2]; chronic 10 mg/kg Na2SO4 plus 3 mg/kg morphine): enhanced analgesia
NLX-precipitated withdrawal hyperalgesia ([3]; mouse, in vivo): prevented NLX-precipitated withdrawal hyperalgesia
effect on mammalian neuraminidase activity [1]: potent inhibitory effects on mammalian neuraminidase activity

CN1CC[C@]23c4c5ccc(O)c4O[C@H]2[C@@H](O)C=C[C@H]3[C@H]1C5 [morphine]
time course of antinociceptive effect, morphine alone ([4]; 3 mg/kg morphine alone, 55° C.): sharply decreased after the first-hour peak
analgesic effects after chronic morphine alone (tolerance) ([4]; daily 3 mg/kg morphine alone, 5 days): sharply decreased by 5 days
response after chronic morphine only ([2]; morphine-only group, 5 days (FIG. 9)): marked hyperalgesia
effect on tail-flick latency, opioid alone ([5]; 0.1 μg/kg morphine s.c. alone, control groups): marked hyperalgesia; also recorded: characteristic hyperalgesia
duration of decreases in tail-flick latencies (hyperalgesia) after drug injection ([5]; 1 μg/kg morphine s.c. alone, 52° C., male mice): 4 to 5 h
time after opioid injection to hyperalgesia ([5]; 1 mg/kg morphine s.c. alone, control group of female mice): ≤ 2 h
decreases in tail-flick latencies ([5]; ca. 1 μg/kg morphine s.c. alone, 52° C.): 1 to 2 s

Oc1ccc2c3c1O[C@H]1[C@@H](O)CC[C@@]4(O)[C@@H](C2)N(CC2CCC2)CC[C@]314 [nalbuphine]
effect on pain within 1 h after injection ([6]; nalbuphine 5 mg i.v.): hyperalgesia

C=CCN1CC[C@]23c4c5ccc(O)c4O[C@H]2C(=O)CC[C@@]3(O)[C@H]1C5 [naloxone]
duration of NLX-evoked hyperalgesic response ([3]; chronic morphine (e.g., 10 mg/kg for 5-6 days), withdrawal, 10 μg/kg NLX): more than 5 h
effect on baseline tail-flick latency [7]: did not alter the baseline tail-flick latency
effect on nalbuphine-induced hyperalgesia ([6]; cotreatment with 0.5 mg naloxone): blocked

O=C1CC[C@@]2(O)[C@H]3Cc4ccc(O)c5c4[C@@]2(CCN3CC2CC2)[C@H]1O5 [naltrexone]
effect on baseline tail-flick latency [7]: did not alter the baseline tail-flick latency
effect on low-dose κ-opioid-induced hyperalgesia, compared with CTX-B cotreatment [5]: similar
effect on low-dose κ-opioid-induced hyperalgesia, compared with CTX-B cotreatment ([5]; listed as NTX): comparable; also recorded: selectively blocked
block of low-dose morphine hyperalgesia and unmasking of analgesia, compared with CTXB cotreatment ([5]; 1 μg/kg morphine plus 1 pg/kg (ultralow-dose) naltrexone): similar

Oc1ccc2c3c1O[C@H]1c4[nH]c5c(c4C[C@@]4(O)[C@@H](C2)N(CC2CC2)CC[C@]314)C[C@@]1(O)[C@H]2Cc3ccc(O)c4c3[C@@]1(CCN2CC1CC1)[C@H]5O4 [nor-binaltorphimine]
effect on low-dose κ-opioid-induced hyperalgesia, compared with CTX-B cotreatment [5]: comparable; also recorded: selectively blocked; also recorded: similar

CCOC(=O)C1=C[C@@H](OC(CC)CC)[C@H](NC(C)=O)[C@@H](N)C1 [oseltamivir]
time to development of morphine tolerance after withdrawal of oseltamivir ([2]; FIG. 10): ≤ 1 days
development of opioid tolerance ([2]; chronic cotreatment with morphine plus oseltamivir (FIGS. 8 and 9)): attenuates development of opioid tolerance
development of opioid tolerance ([2]; chronic oseltamivir plus morphine for 3 days (FIG. 8)): prevents development of opioid tolerance
effect on analgesic potency of higher doses of morphine ([2]; cotreatment with oseltamivir, male mice (FIG. 7)): markedly enhances the analgesic potency
effect on low-dose morphine-induced hyperalgesia ([2]; morphine plus oseltamivir s.c., male mice (FIG. 6)): selectively blocks; also recorded: blocks low-dose, morphine-induced hyperalgesia
effect of adding oseltamivir to chronic morphine-tolerant mice ([2]; oseltamivir added for 1 day (FIG. 10)): restores prominent analgesia
morphine analgesia after chronic cotreatment ([2]; oseltamivir plus morphine, 5 days (FIG. 9)): still show prominent morphine (Mor) analgesia
NLX-precipitated withdrawal hyperalgesia ([3]; chronic cotreatment with morphine plus oseltamivir): prevented development of NLX-precipitated withdrawal hyperalgesia

dynorphin
effect on tail-flick latency ([8]; dynorphin 0.5 μg/kg s.c., tested at 90 min post-injection): thermal hyperalgesia
effect on tail-flick latency ([8]; dynorphin 50 μg/kg): analgesia
